The values below come from patent US20230405002A1, “COMBINATIONS OF DIACYLGLYCEROL ACYLTRANSFERASE 2 INHIBITORS AND ACETYL-COA CARBOXYLASE INHIBITOR” (Pfizer Inc., priority 2020, published 2023).

Values after ≈ are worked out from the molar mass of the structure shown.

One data set concerns the target human DGAT2 (hDGAT2) (Homo sapiens (Human), UniProt Q96PD7). The experiment in a line: In vitro DGAT2 assay, determination of IC50 values. Format: biochemical. The conditions noted are these: geometric mean; hDGAT2 membrane fraction.
Data set [1] has as its target DGAT2 in human hepatocytes (Homo sapiens (Human), UniProt Q96PD7). The data set is described as follows: Determination of IC50 values for DGAT2 inhibitors in human hepatocytes. The conditions noted are these: geometric mean; cryopreserved human hepatocytes, DGAT1 inhibitor 3 μM present. Format: cell-based. The method, then: For evaluation of the effects of DGAT2 inhibitors in a cell-based setting, cryopreserved human hepatocytes (Lot DOO, Celsis, Baltimore, MD) were thawed and plated onto type I collagen-coated plates according to the manufacturer's instructions. After 18 hours overnight recovery period, the cells were overlayed with media containing 250 μg/mL Geltrex Basement Membrane Matrix (Thermo Fisher). The following day, media was aspirated and replaced with serum-free Williams Media E (Thermo Fisher) containing 400 μM sodium dodecanoate (Sigma-Aldrich, St. Louis, MO) and 2 mM GlutaMAX (Thermo Fisher). […] DGAT2 inhibitors were then added to the desired final concentration. After a 15 minute preincubation, 0.2 μCi [^14C(U)]-glycerol (Perkin Elmer) was added to each well followed by a 3 hour incubation. At this point the media was removed, and the cells lysed via orbital shaking in isopropyl alcohol: tetrahydrofuran (9:1) for 15 minutes prior to centrifugation at 3000 rpm for 10 minutes. Radiolabeled lipids were resolved using a solvent system by thin layer chromatography with the solvent consisting of hexanes: diethyl ether: glacial acetic acid (75:23:2, v/v/v). After separation, radiolabeled lipids were visualized using the Typhoon 9500 phosphorimaging system (GE). The half maximal inhibitory concentrations (IC50 values) were determined by nonlinear regression analysis of the % inhibition dose response curve using GraphPad Prism (GraphPad Software, Inc., La Jolla, CA).
Table 12 below provides the IC50 values of selected Examples for inhibition of DGAT2 in human hepatocytes in accordance with the above-described assay. Results are reported as geometric mean IC50 values, with the number of replicates (n) shown.

The subject of another data set is human liver microsomes. The experiment in a line: Intrinsic clearance in human liver microsomes. Particulars: human liver microsome assay, 1 μM.
Data set [2] is described as follows: Determination of pKa (capillary electrophoresis). Particulars: most basic pKa, mean.
The next data set has as its system human hepatocytes. The experiment in a line: High throughput intrinsic clearance in human hepatocytes. The conditions noted are these: high throughput human hepatocyte assay, 1 μM.
For data set [3], the system named is Western diet fed Sprague-Dawley rats. The data set is described as follows: In vivo effects of DGAT2 inhibitors on plasma and hepatic triglyceride levels (rat western diet model). The conditions noted are these: oral 3, 10, 30, 100 mg/kg BID 7 days; dose dependent; vs western diet vehicle. The text has this:
The rat western diet model was utilized to assess the effects of DGAT2 inhibitor treatment on plasma triglyceride production and hepatic triglyceride content in vivo. Male Sprague-Dawley rats were housed under standard laboratory conditions on a 12-hour light, 12-hour dark cycle (lights on at 06:00). Two weeks prior to study start animals were placed on a high-fat, high sucrose, high-cholesterol diet (D12079b, provided by Research Diets, New Brunswick, NJ). This diet provides ˜43% of kilocalories from carbohydrate and ˜41% of kilocalories from fat. Example 4 was administered orally as a solution (10 mL/kg dosing volume) in 0.5% methylcellulose in deionized water, pH 7.0-7.5 (methylcellulose was obtained from Sigma-Aldrich, St. Louis, MO). […] Plasma TG levels were determined using a Roche Hitachi Chemistry analyzer according to the manufacturer's instructions (Roche Diagnostics Corporation, Indianapolis, IN) and data was analyzed using GraphPad Prism (GraphPad Software, Inc., La Jolla, CA). […] The triglyceride assay was performed through absorbance and reported as milligrams per deciliter. […]
FIG. 29 plots the multiple dose effects of Example 4 on Plasma Triglyceride in Western Diet Fed Sprague-Dawley Rats where plasma triglyceride levels were determined from blood drawn from the lateral tail vein 2-hours following the final dose of Example 4. […]

Data set [4] in a line: Thermodynamic solubility in various media. Format: physicochemical. As to the method:
The solubility of active pharmaceutical ingredients is an important characteristic in determining biological performance and ease of formulation during drug development, with high solubility being preferred (Klein, S. 2010, The AAPS Journal, 12, 397-406; Di, L., et al 2012, Drug Disc. Today, 17. 486-495). A test sample of crystalline solid (˜7 mg) was combined in a vial with 1 mL of the relevant buffer solution and the mixture vortexed to combine. If the solid dissolved completely, additional solid was added with vortexing until a saturated solution was obtained. The saturated solution/solid mixture was capped and subjected to temperature cycling as follows: 1 min at 25° C.; 8 h at 40° C.; 5 h at 15° C. and 12 h at 25° C. The mixture was filtered in a centrifugal filtration device (0.22 μm PVDF filter, MilliporeSigma, Milwaukee, WI) at 13,000 rpm and the concentration of the test compound in the filtrate was determined by HPLC/UPLC with reference to a three point standard curve. Phosphate buffered saline (PBS, pH 6.8, 50 mM phosphate buffer, 250 mM NaCl). Simulated gastric fluid (SGN pH 1.2, USP recipe). […]

Sequence of DGAT2 in human hepatocytes (Q96PD7 whole entry): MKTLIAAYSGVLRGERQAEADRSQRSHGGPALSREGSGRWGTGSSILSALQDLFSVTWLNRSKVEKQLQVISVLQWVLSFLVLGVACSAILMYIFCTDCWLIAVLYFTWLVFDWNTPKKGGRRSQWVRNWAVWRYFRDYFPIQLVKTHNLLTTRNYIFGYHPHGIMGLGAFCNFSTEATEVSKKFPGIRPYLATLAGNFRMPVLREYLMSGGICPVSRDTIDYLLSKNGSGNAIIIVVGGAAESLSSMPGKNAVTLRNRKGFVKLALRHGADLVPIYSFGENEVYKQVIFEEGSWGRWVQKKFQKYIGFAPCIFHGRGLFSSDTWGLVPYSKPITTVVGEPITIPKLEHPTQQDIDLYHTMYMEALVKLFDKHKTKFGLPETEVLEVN
Sequence of human DGAT2 (hDGAT2) (Q96PD7 whole entry): as above
Procedure for human liver microsomes: The high throughput human microsomal stability assay was performed in a 384-well format (Di, L., et al. 2012, Eur. J. Med. Chem., 57, 441-448). All liquid handling and incubation were conducted with a Biomek FX (Beckman Coulter, Inc., Indianapolis, IN), equipped with one 3-position Mecour heated deck positions. Pooled human liver microsomes of 50 donors (Lot: HLM-103) were purchased from BD Biosciences (Bedford, MA). Each incubation contained test compound (1 μM), human liver microsomes (0.25 μM CYP protein equivalent to 0.806 mg/mL protein concentration), NADPH 20.9 mM, MgCl2 (3.3 mM) and potassium phosphate buffer (100 mM at pH 7.4). The final reaction volume was 45 μL containing 0.1% DMSO. The incubations were conducted at 37° C. At various time points (e.g. 1, 4, 7, 12, 20, 25, 45 and 60 min), cold acetonitrile with mass spectrometry (MS) internal standard (Example 39A, WO1999/57125) was added to quench the reaction. The plates were centrifuged at 3000 rpm for 1 min at 4° C. […] The plates were sealed and subsequently analyzed using LC-MS/MS. Control plates were prepared in the same manner without adding the NADPH cofactor to monitor any non-CYP/FMO catalyzed decline. […] The data are presented as the mean+/− standard deviation, with the number of replicates (n) shown.

`CCOc1cccnc1Oc1cncc(-c2ncc(C(=O)N[C@@H]3CNCC[C@@H]3F)cn2)c1.O=C(O)C(F)(F)F.O=C(O)C(F)(F)F` [Example 3, 2-{5-[(3-Ethoxypyridin-2-yl)oxy]pyridin-3-yl}-N-[(3R,4S)-4-fluoropiperidin-3-yl]pyrimidine-5-carboxamide, bis(trifluoroacetate) salt]: the IC50 on human DGAT2 (hDGAT2) stood at 0.04 µM; in data set [1], 0.023 µM. The “CLint (+/− STD Dev)” value in the data set with human liver microsomes is under 7 µL/min/mg. In addition, the “Basic pKa” value in data set [2] was found to be 8.1. Moreover, the “CLint (+/− Std Dev)” value in the data set on human hepatocytes is <1.9 +/− 0.35 μL/min/10^6 cells.

With `CCOc1cccnc1Oc1cncc(-c2ncc(C(=O)N[C@@H]3CNC[C@@H](F)C3)cn2)c1` [Example 4, 2-{5-[(3-Ethoxypyridin-2-yl)oxy]pyridin-3-yl}-N-[(3S,5S)-5-fluoropiperidin-3-yl]pyrimidine-5-carboxamide], the half-maximal inhibitory concentration (IC50) turned out to be 0.01 µM at human DGAT2 (hDGAT2) and 0.011 µM in data set [1]. Besides, the “reduction in liver triglycerides” value in data set [3] was “up to 48%”. For the same compound, in data set [3], the “reduction in plasma triglycerides” value is given as at most 70%. Further, the solubility at 25 h is 1210 µg/mL (≈ 2760 µM) in data set [4] (FaSSIF (as printed, 25 °C, thermodynamic from solid), FaSSIF pH 6.8 (second line so printed; method also names FeSSIF)) and 700 µg/mL (≈ 1600 µM) in data set [4] (fasted state simulated intestinal fluid (FaSSIF), 25 °C, thermodynamic from solid, FaSSIF pH 6.8 (first line)).

One may read the IC50 as the point on the concentration scale where inhibition reaches its midpoint. Higher therefore signals weaker potency in that assay. Broadly, the solubility is the dissolved amount per volume that the medium holds.
